ChEMBL document CHEMBL4152375, “Compromising the plasma membrane as a secondary target in photodynamic therapy-induced necrosis” (Bioorg Med Chem, 2018)
Active and inactive are the calls of the source. The rule behind the calls is not given here.

Tests used:
[1] = Drug uptake in endosome of CHO cells at 1 uM incubated for overnight followed by compound washout measured by fluorescence microscopic analysis; type: ADME, subcellular, Cricetulus griseus; settings: chinese hamster
CHO [2] = assay: Induction of plasma membrane-mediated necrosis in CHO cells assessed as swelling of nuclei at 1 uM incubated for overnight followed by compound washout and subsequent 150W irradiation for 30 secs by fluorescence microscopic analysis; type: functional, cell-based; settings: Cricetulus griseus
[3] = Drug uptake in endosome of fluorescein-dextran-labelled CHO cells at 1 uM incubated for overnight followed by compound washout measured by fluorescence microscopic analysis; type: ADME, subcellular, Cricetulus griseus; settings: chinese hamster
CHO [4] = assay: Induction of plasma membrane-mediated necrosis in CHO cells at 1 uM incubated for overnight followed by compound washout with PBS 5% FBS and subsequent 150W irradiation for 30 secs by fluorescence microscopic analysis; type: functional, cell-based; settings: Cricetulus griseus
[5] = Dark toxicity in CHO cells at 1 uM incubated for overnight followed by compound washout by fluorescence microscopic analysis; type: cell-based, Cricetulus griseus; settings: chinese hamster
[6] = Drug uptake in lysosome of fluorescein-dextran-labelled CHO cells at 1 uM incubated for overnight followed by compound washout measured by fluorescence microscopic analysis; type: ADME, subcellular, Cricetulus griseus; settings: chinese hamster
CHO [7] = assay: Induction of plasma membrane-mediated necrosis in EthD1-labelled CHO cells at 1 uM incubated for two hrs at 4 degC followed by compound washout and subsequent 150W irradiation for 30 secs by fluorescence microscopic analysis; type: functional, cell-based; settings: Cricetulus griseus
CHO [8] = assay: Induction of plasma membrane-mediated necrosis in EthD1-labelled CHO cells assessed as swelling of nuclei at 1 uM incubated for overnight followed by compound washout and subsequent 150W irradiation for 30 secs by fluorescence microscopic analysis; type: functional, cell-based; settings: Cricetulus griseus

Drug uptake [1]: Active | Drug uptake [3]: Active | Drug uptake [6]: Active
Structure (SMILES): CN1CC2c3nc(c(-c4c(F)c(F)c(S[C@@H]5O[C@H](CO)[C@@H](O)[C@H](O)[C@H]5O)c(F)c4F)c4ccc([nH]4)c(-c4c(F)c(F)c(S[C@@H]5O[C@H](CO)[C@@H](O)[C@H](O)[C@H]5O)c(F)c4F)c4nc(c(-c5c(F)c(F)c(S[C@@H]6O[C@H](CO)[C@@H](O)[C@H](O)[C@H]6O)c(F)c5F)c5ccc([nH]5)c3-c3c(F)c(F)c(S[C@@H]5O[C@H](CO)[C@@H](O)[C@H](O)[C@H]5O)c(F)c3F)C=C4)C2C1 (stereo partly drawn)
Activity (CHO [2]): Active | Activity (CHO [4]): inactive | Activity [5]: Non-Toxic | Activity (CHO [7]): Active | Activity (CHO [8]): Active
